In patent publication US20020090380A1, “Novel formulation comprising thymol useful in the treatment of drug resistant bacterial infections” (priority 2000, published 2002):
Where two headings read alike, the source gives them in different places.

Experiments:
[1] = tested on: Ethidium bromide resistant strain of Mycobacterium smegmetis; type: cell-based
E. coli CA 8000 (WT) = type: cell-based, Escherichia coli
[2] = tested on: lomefloxacin resistant cells of E. coli; type: cell-based, Escherichia coli
[3] = tested on: Lom^R mutants of Mycobacterium smegmatis; type: cell-based; details: Lom^R mutants
Nal^R mutants of E. coli = type: cell-based, Escherichia coli; details: 5 μg/ml
[4] = CA 8000 (WT), 20 μg/ml, Table 4

SMILES: O=C(N[C@H](CO)[C@H](O)c1ccc([N+](=O)[O-])cc1)C(Cl)Cl [Chloromphenicol]
- concentration against which the strain is resistant (mdr) [1]: 20 µg/mL

SMILES: O=C(O)c1cn(C2CC2)c2cc(N3CCNCC3)c(F)cc2c1=O [Ciprofloxacin, ciprofloxacin]
- Growth in poison agar medium (E. coli CA 8000 (WT)): −
- Growth in poison agar medium ([2]; CAL 101, 2 μg/ml): +
- Growth in poison agar medium ([2]; CAL 102, 2 μg/ml): +
- Growth in poison agar medium ([2]; CAL 103, 2 μg/ml): +
- Growth in poison agar medium ([2]; CAL 104, 2 μg/ml): +
- Growth in poison agar medium ([2]; CAL 105, 2 μg/ml): +
- Growth in poison agar medium ([2]; CAL 106, 2 μg/ml): +
- Growth in poison agar medium ([2]; CAL 107, 2 μg/ml): +
- Growth in poison agar medium ([2]; CAL 108, 2 μg/ml): +
- resistance of the mutants [3]: resistant
- Growth in poison agar medium (Nal^R mutants of E. coli; CAN 101): −
- Growth in poison agar medium (Nal^R mutants of E. coli; CAN 102): −
- Growth in poison agar medium (Nal^R mutants of E. coli; CAN 103): −
- Growth in poison agar medium (Nal^R mutants of E. coli; CAN 104): −
- Growth in poison agar medium (Nal^R mutants of E. coli; CAN 105): −
- Growth in poison agar medium (Nal^R mutants of E. coli; CAN 106): −
- Growth in poison agar medium (Nal^R mutants of E. coli; CAN 107): −
- Growth in poison agar medium (Nal^R mutants of E. coli; CAN 108): −
- Growth in poison agar medium (Nal^R mutants of E. coli; CAN 109): −
- Growth in poison agar medium (Nal^R mutants of E. coli; CAN 110): −
- Growth in poison agar medium (Nal^R mutants of E. coli; CAN 111): −
- Growth in poison agar medium (Nal^R mutants of E. coli; CAN 112): −
- Growth in poison agar medium (Nal^R mutants of E. coli; CAN 113): −
- Growth in poison agar medium (Nal^R mutants of E. coli; CAN 114): −
- Growth in poison agar medium (Nal^R mutants of E. coli; CAN 115): −
- Growth in poison agar medium (Nal^R mutants of E. coli; CAN 116): −
- Growth in poison agar medium (Nal^R mutants of E. coli; CAN 117): −
- Growth in poison agar medium (Nal^R mutants of E. coli; CAN 118): −
- Growth in poison agar medium (Nal^R mutants of E. coli; CAN 119): −
- Growth in poison agar medium (Nal^R mutants of E. coli; CAN 120): −
- Growth in poison agar medium (Nal^R mutants of E. coli; CAN 121): −
- Growth in poison agar medium (Nal^R mutants of E. coli; CAN 122): −
- Growth in poison agar medium (Nal^R mutants of E. coli; CAN 123): −
- Growth in poison agar medium (Nal^R mutants of E. coli; CAN 124): −
- Growth in poison agar medium (Nal^R mutants of E. coli; CAN 125): −
- Growth in poison agar medium (Nal^R mutants of E. coli; CAN 126): −

SMILES: CCn1cc(C(=O)O)c(=O)c2cc(F)c(N3CCNCC3)cc21 [Aorfloxacin]
- Growth in poison agar medium (E. coli CA 8000 (WT); [4]): −
- Growth in poison agar medium ([2]; CAL 101, 20 μg/ml): +
- Growth in poison agar medium ([2]; CAL 102, 20 μg/ml): +
- Growth in poison agar medium ([2]; CAL 103, 20 μg/ml): +
- Growth in poison agar medium ([2]; CAL 104, 20 μg/ml): +
- Growth in poison agar medium ([2]; CAL 105, 20 μg/ml): +
- Growth in poison agar medium ([2]; CAL 106, 20 μg/ml): +
- Growth in poison agar medium ([2]; CAL 107, 20 μg/ml): +
- Growth in poison agar medium ([2]; CAL 108, 20 μg/ml): +

SMILES: C[C@@H]1CN(c2c(F)c(N)c3c(=O)c(C(=O)O)cn(C4CC4)c3c2F)C[C@H](C)N1 [Sparfloxacin]
- Growth in poison agar medium (E. coli CA 8000 (WT); CA 8000 (WT), 5 μg/ml, Table 2): −
- Growth in poison agar medium (E. coli CA 8000 (WT); [4]): −
- Growth in poison agar medium ([2]; CAL 101, 20 μg/ml): +
- Growth in poison agar medium ([2]; CAL 102, 20 μg/ml): +
- Growth in poison agar medium ([2]; CAL 103, 20 μg/ml): +
- Growth in poison agar medium ([2]; CAL 104, 20 μg/ml): +
- Growth in poison agar medium ([2]; CAL 105, 20 μg/ml): +
- Growth in poison agar medium ([2]; CAL 106, 20 μg/ml): +
- Growth in poison agar medium ([2]; CAL 107, 20 μg/ml): +
- Growth in poison agar medium ([2]; CAL 108, 20 μg/ml): +
- Growth in poison agar medium (Nal^R mutants of E. coli; CAN 101): +
- Growth in poison agar medium (Nal^R mutants of E. coli; CAN 102): +
- Growth in poison agar medium (Nal^R mutants of E. coli; CAN 103): +
- Growth in poison agar medium (Nal^R mutants of E. coli; CAN 104): +
- Growth in poison agar medium (Nal^R mutants of E. coli; CAN 105): +
- Growth in poison agar medium (Nal^R mutants of E. coli; CAN 106): +
- Growth in poison agar medium (Nal^R mutants of E. coli; CAN 107): +
- Growth in poison agar medium (Nal^R mutants of E. coli; CAN 108): +
- Growth in poison agar medium (Nal^R mutants of E. coli; CAN 109): +
- Growth in poison agar medium (Nal^R mutants of E. coli; CAN 110): +
- Growth in poison agar medium (Nal^R mutants of E. coli; CAN 111): +
- Growth in poison agar medium (Nal^R mutants of E. coli; CAN 112): +
- Growth in poison agar medium (Nal^R mutants of E. coli; CAN 113): +
- Growth in poison agar medium (Nal^R mutants of E. coli; CAN 114): +
- Growth in poison agar medium (Nal^R mutants of E. coli; CAN 115): +
- Growth in poison agar medium (Nal^R mutants of E. coli; CAN 116): +
- Growth in poison agar medium (Nal^R mutants of E. coli; CAN 117): +
- Growth in poison agar medium (Nal^R mutants of E. coli; CAN 118): +
- Growth in poison agar medium (Nal^R mutants of E. coli; CAN 119): +
- Growth in poison agar medium (Nal^R mutants of E. coli; CAN 120): +
- Growth in poison agar medium (Nal^R mutants of E. coli; CAN 121): +
- Growth in poison agar medium (Nal^R mutants of E. coli; CAN 122): +
- Growth in poison agar medium (Nal^R mutants of E. coli; CAN 123): +
- Growth in poison agar medium (Nal^R mutants of E. coli; CAN 124): +
- Growth in poison agar medium (Nal^R mutants of E. coli; CAN 125): +
- Growth in poison agar medium (Nal^R mutants of E. coli; CAN 126): +
